Measured values published in ChEMBL document CHEMBL2010699, “Novel substituted 9-norbornylpurines and their activities against RNA viruses” (Bioorg Med Chem Lett, 2012).
≈ marks a conversion by molar mass, not a printed value. Calls of active or inactive are those of the source. The rule behind the calls is not given here.

Assays:
Chikungunya virus = experiment: Antiviral activity against Chikungunya virus assessed as suppression of viral replication; assay type: functional
[1] = Selectivity index, ratio of CC50 for african green monkey Vero cells to EC50 for Coxsackievirus B3; assay type: toxicity, cell-based; details: read-out: Ratio CC50/EC50
Hepatitis C virus = experiment: Antiviral activity against Hepatitis C virus assessed as suppression of viral replication; assay type: functional, organism-based; details: Hepacivirus hominis
Coxsackievirus B3 [2] = experiment: Antiviral activity against Coxsackievirus B3 infected in african green monkey Vero cells assessed as inhibition virus-induced cell death by MTS assay; assay type: functional, organism-based; details: Enterovirus B
[3] = Cytotoxicity against african green monkey Vero cells assessed as inhibition of host metabolism by MTS assay; assay type: cell-based; details: chlorocebus sabaeus
Coxsackievirus B3 [4] = experiment: Antiviral activity against Coxsackievirus B3 infected in african green monkey vero cells assessed as inhibition of virus-induced cytopathic effect by microscopic estimation; assay type: functional, organism-based
Vero = experiment: Cytotoxicity against african green monkey Vero cells assessed as change in morphology of the cells by microscopic analysis; assay type: cell-based; details: chlorocebus sabaeus
[5] = Solubility of the compound in water at 20 degC by UV spectrophotometry; assay type: physicochemical

Compound	Activity (Chikungunya virus)	selectivity ratio [1]	Activity (Hepatitis C virus)	EC50 (Coxsackievirus B3 [2]) [µM]	EC90 (Coxsackievirus B3 [2]) [µM]	CC50 [3] [µM]	Activity (Coxsackievirus B3 [4])	Activity (Vero)	solubility [5] [µg/mL]
CCCCCCO[C@H]1C[C@H]2C[C@@H]1C[C@@H]2n1cnc2c(Cl)ncnc21 (relative stereo)	inactive	< 1	inactive	> 27	> 27	27			
Clc1ncnc2c1ncn2[C@H]1C[C@H]2C[C@@H]1C[C@@H]2OC1CCCCC1 (relative stereo)	inactive	< 1	inactive	> 22	> 22	22			
Clc1ncnc2c1ncn2[C@H]1C[C@H]2C[C@@H]1C[C@@H]2Oc1ccccc1 (relative stereo)	inactive	< 1	inactive	> 50	> 50	50			
Clc1ncnc2c1ncn2[C@@H]1C[C@@H]2C[C@H]1[C@@H](Oc1ccccc1)C2 (relative stereo)	inactive		inactive	> 150	> 150	> 587			
Oc1ccc(O[C@H]2C[C@H]3C[C@@H]2C[C@@H]3n2cnc3c(Cl)ncnc32)cc1 (relative stereo)	inactive	3.7	inactive	58		217			
OCCO[C@H]1C[C@H]2C[C@@H]1C[C@@H]2n1cnc2c(Cl)ncnc21 (relative stereo)	inactive	> 18	inactive	37		> 648	Active	Non-toxic	
OCCCO[C@H]1C[C@H]2C[C@@H]1C[C@@H]2n1cnc2c(Cl)ncnc21 (relative stereo)	inactive	> 13	inactive	47		> 620	Active	Non-toxic	
OCCCCO[C@H]1C[C@H]2C[C@@H]1C[C@@H]2n1cnc2c(Cl)ncnc21 (relative stereo)	inactive	> 16	inactive	37	53	> 594	Active	Non-toxic	
OCCCCCO[C@H]1C[C@H]2C[C@@H]1C[C@@H]2n1cnc2c(Cl)ncnc21 (relative stereo)	inactive	> 26	inactive	22	30	> 570	Active	Non-toxic	
OCCOCCO[C@H]1C[C@H]2C[C@@H]1C[C@@H]2n1cnc2c(Cl)ncnc21 (relative stereo)	inactive	> 14	inactive	42	60	> 567	Active	Non-toxic	7460 (≈ 21.1 mM)
OCCO[C@H]1C[C@H]2C[C@@H]1[C@H](n1cnc3c(Cl)ncnc31)C2 (relative stereo)	inactive	> 22	inactive	29	37	> 648	Active	Non-toxic	
OCCO[C@@H]1C[C@H]2C[C@@H]1C[C@@H]2n1cnc2c(Cl)ncnc21 (relative stereo)	inactive	> 41	inactive	16	32	> 648	Active	Non-toxic	4570 (≈ 14.8 mM)
OCCO[C@@H]1C[C@H]2C[C@@H]1[C@H](n1cnc3c(Cl)ncnc31)C2 (relative stereo)	inactive	> 50	inactive	13	22	> 648	Active	Non-toxic	4690 (≈ 15.2 mM)
